Measurements as given in ChEMBL document CHEMBL5375947, “Discovery of Efficient Hypoxia-Targeted NO Donor Compounds to Alleviate Hypoxia Cardiac Disease” (J Med Chem, 2023).
Calls of active or inactive are those of the source. The rule behind the calls is not given here.

Tests used:
[1] = test system: H9c2; assay: Induction of NO release in rat H9c2 cells at 10 uM under normoxia condition by griess reagent based assay; type: functional
[2] = test system: H9c2; assay: Induction of NO release in rat H9c2 cells at 10 uM under hypoxia condition by griess reagent based assay; type: functional
[3] = test system: H9c2; assay: Induction of NO release in rat H9c2 cells at 5 to 10 uM under hypoxia condition by griess reagent based assay; type: functional, cell-based; details: dose 5-10 µM
[4] = test system: H9c2; assay: Induction of NO release in rat H9c2 cells at 5 to 15 uM under hypoxia condition by griess reagent based assay; type: functional, cell-based; details: dose 5-15 µM
[5] = test system: H9c2; assay: Induction of NO release in rat H9c2 cells at 10 uM under hypoxia condition by DAF-FM fluorescence probe based spectroscopic assay; type: functional, cell-based
[6] = test system: H9c2; assay: Induction of NO release in rat H9c2 cells at 10 uM measured upto 12 hrs under hypoxia condition by griess reagent based assay; type: functional, cell-based
[7] = test system: H9c2; assay: Induction of NO release in rat H9c2 cells at 10 uM measured at 4 hrs under normoxia condition by griess reagent based assay; type: functional
[8] = test system: H9c2; assay: Induction of NO release in rat H9c2 cells at 10 uM measured at 4 hrs under hypoxia condition by griess reagent based assay; type: functional, cell-based
[9] = test system: H9c2; assay: Induction of NO release in rat H9c2 cells at 10 uM measured at 30 mins under hypoxia condition by griess reagent based assay; type: functional; details: 0.5 h
[10] = test system: H9c2; assay: Cytotoxicity against rat H9c2 cells assessed as reduction in cell viability at 0.01 to 10 uM under normoxia condition by CCK-8 assay; type: toxicity, cell-based; details: h9c2, 10 µM, dose 0.01-10 µM
[11] = test system: H9c2; assay: Recovery of myocardial cell viability in rat H9c2 cells at 0.01 to 10 uM under hypoxia condition by CCK-8 assay; type: functional, cell-based; details: dose 0.01-10 µM
[12] = test system: H9c2; assay: Recovery of myocardial cell viability in rat H9c2 cells assessed as increase in ATP level at 10 micromol/L measured per mg of protein under hypoxia condition by fluorescence based assay; type: functional; details: dose 10 µmol/L
[13] = Toxicity in C57 mouse assessed as increase in body weight at 4 mg/kg, ip administered twice a day for 3 days; type: organism-based; details: in vivo, 72 h, time 3 day
[14] = test system: H9c2; assay: Anti-apoptotic activity in rat H9c2 cells assessed as late apoptotic cells by measuring red fluorescence intensity by annexin V-FITC/PI staining based confocal microscopic analysis; type: functional, cell-based
[15] = test system: H9c2; assay: Downregulation of ACE expression in rat H9c2 cells at 5 to 10 uM by Western blot analysis; type: functional, cell-based; details: dose 5-10 µM
[16] = test system: H9c2; assay: Upregulation of TSC2-p expression in rat H9c2 cells at 5 to 10 uM by Western blot analysis; type: functional, cell-based; details: dose 5-10 µM
[17] = test system: H9c2; assay: Effect on ACE expression in rat H9c2 cells at 1 uM by Western blot analysis; type: functional, cell-based
[18] = test system: H9c2; assay: Effect on TSP1 expression in rat H9c2 cells at 10 uM by Western blot analysis; type: functional, cell-based
[19] = test system: H9c2; assay: Effect on TSC2-p expression in rat H9c2 cells by Western blot analysis; type: functional, cell-based; details: dose 0.01-1 µM
[20] = Toxicity in C57 mouse assessed as increase in cardiac swelling at 12 mg/kg, ip administered twice a day for 3 days; type: organism-based; details: in vivo, 72 h, time 3 day
[21] = Toxicity in C57 mouse assessed as reduction in heart weight at low dose administered twice a day for 3 days (reference value: 0.56g); details: in vivo, 72 h, time 3 day
[22] = Toxicity in C57 mouse assessed as reduction in heart weight at high dose administered twice a day for 3 days (reference value: 0.56g); details: in vivo, 72 h, time 3 day
[23] = test system: Mus musculus; assay: Induction of NO release in C57 mouse at 4 to 12 mg/kg, ip administered twice a day for 3 days; type: functional, organism-based; details: dose 4-12 mg/kg, time 3.0 day
[24] = test system: Mus musculus; assay: Protection against hypoxia-induced myocardial injury ip dosed C57 mouse model assessed as cellular arrangement disorder at low dose administered twice a day for 2 days by H and E staining based analysis; type: functional, organism-based; details: time 2.0 day
[25] = test system: Mus musculus; assay: Protection against hypoxia-induced myocardial injury ip dosed C57 mouse model assessed as cellular arrangement disorder at high dose administered twice a day for 2 days by H and E staining based analysis; type: functional, organism-based; details: time 2.0 day
[26] = test system: Mus musculus; assay: Vasodilation activity against hypoxia-induced myocardial injury ip dosed C57 mouse model assessed as vascular obstruction areas low dose administered twice a day for 3 days; type: functional, organism-based; details: time 3.0 day
[27] = test system: Mus musculus; assay: Vasodilation activity against hypoxia-induced myocardial injury ip dosed C57 mouse model assessed as vascular obstruction areas high dose administered twice a day for 3 days; type: functional, organism-based; details: time 3.0 day
[28] = test system: Mus musculus; assay: Protection against hypoxia-induced myocardial injury ip dosed C57 mouse model assessed as collagen fiber proliferation at low dose administered twice a day for 3 days by masson staining based analysis; type: functional, organism-based; details: time 3.0 day
[29] = test system: Mus musculus; assay: Protection against hypoxia-induced myocardial injury ip dosed C57 mouse model assessed as downregulation of ACE expression in heart at low dose administered twice a day for 3 days by immunohistochemistry analysis; type: functional, organism-based; details: time 3.0 day
[30] = test system: Mus musculus; assay: Protection against hypoxia-induced myocardial injury ip dosed C57 mouse model assessed as downregulation of ACE expression in heart at high dose administered twice a day for 3 days by immunohistochemistry analysis; type: functional, organism-based; details: time 3.0 day
[31] = test system: Mus musculus; assay: Protection against hypoxia-induced myocardial injury ip dosed C57 mouse model assessed as downregulation of mTORC1 expression in heart at low dose administered twice a day for 3 days by immunohistochemistry analysis; type: functional, organism-based; details: time 3.0 day
[32] = test system: Mus musculus; assay: Protection against hypoxia-induced myocardial injury ip dosed C57 mouse model assessed as downregulation of mTORC1 expression in heart at high dose administered twice a day for 3 days by immunohistochemistry analysis; type: functional, organism-based; details: time 3.0 day
[33] = Toxicity in C57 mouse assessed as increase in body weight at 4 to 12 mg/kg IG administered twice a day for 3 days; type: organism-based; details: in vivo, po, 72 h, dose 4-12 mg/kg, time 3 day
[34] = Toxicity in C57 mouse assessed as ratio of heart weight to body weight at 4 to 12 mg/kg IG administered twice a day for 3 days; type: organism-based; details: in vivo, po, 72 h, dose 4-12 mg/kg, time 3 day
[35] = test system: Mus musculus; assay: Protection against hypoxia-induced myocardial injury IG dosed C57 mouse model assessed as collagen fiber proliferation at low dose administered twice a day for 3 days by masson staining based analysis; type: functional, organism-based; details: time 3.0 day
[36] = test system: Mus musculus; assay: Protection against hypoxia-induced myocardial injury C57 mouse model assessed as reduction in collagen fiber proliferation at 12 mg/kg, IG administered twice a day for 3 days by masson staining based analysis; type: functional, organism-based; details: time 3.0 day
[37] = test system: Mus musculus; assay: Protection against hypoxia-induced myocardial injury C57 mouse model assessed as downregulation of ACE expression in heart at 12 mg/kg, IG administered twice a day for 3 days by immunohistochemistry analysis; type: functional, organism-based; details: time 3.0 day
[38] = test system: H9c2; assay: Induction of NO release in rat H9c2 cells under hypoxia condition by griess reagent based assay; type: functional, cell-based; details: dose <= 15.0 µM
[39] = Toxicity in C57 mouse assessed as reduction in heart weight at 12 mg/kg, ip administered twice a day for 3 days (reference value: 0.56g); type: organism-based; details: in vivo, 72 h, time 3 day
[40] = test system: Mus musculus; assay: Induction of NO release in C57 mouse at 4 mg/kg, ip administered twice a day for 3 days; type: functional; details: time 3 day
[41] = test system: Mus musculus; assay: Protection against hypoxia-induced myocardial injury C57 mouse model assessed as cellular arrangement disorder at 12 mg/kg, ip administered twice a day for 2 days by H and E staining based analysis; type: functional, organism-based; details: time 2.0 day
[42] = test system: Mus musculus; assay: Vasodilation activity against hypoxia-induced myocardial injury C57 mouse model assessed as vascular obstruction areas at 12 mg/kg, ip administered twice a day for 3 days; type: functional, organism-based; details: time 3.0 day
[43] = Toxicity in C57 mouse assessed as ratio of heart weight to body weight at 4 mg/kg IG administered twice a day for 3 days; type: organism-based; details: in vivo, po, 72 h, time 3 day
[44] = Stability of compound in PBS at pH 7.4 by HPLC analysis; type: physicochemical; details: buffer
[45] = test system: H9c2; assay: Recovery of myocardial cell viability in rat H9c2 cells under hypoxia condition by CCK-8 assay; type: functional, cell-based; details: dose 10.0 µM
[46] = test system: H9c2; assay: Recovery of myocardial cell viability in rat H9c2 cells at 0.01 to 1 uM under hypoxia condition by CCK-8 assay; type: functional, cell-based; details: dose 0.01-1 µM
[47] = test system: H9c2; assay: Downregulation of ACE expression in rat H9c2 cells at 5 uM by Western blot analysis; type: functional, cell-based
[48] = test system: H9c2; assay: Downregulation of mTORC1 expression in rat H9c2 cells at 5 to 10 uM by Western blot analysis; type: functional, cell-based; details: dose 5-10 µM
[49] = test system: H9c2; assay: Downregulation of mTORC1 expression in rat H9c2 cells at 5 uM by Western blot analysis; type: functional, cell-based
[50] = Toxicity in C57 mouse assessed as increase in cardiac swelling at 4 mg/kg, ip administered twice a day for 3 days; type: organism-based; details: in vivo, 72 h, time 3 day

## CN(N=O)c1ccc(OC(=O)OCc2ccc(Cl)cc2[N+](=O)[O-])cc1
[1]
  Activity: <2%

## CN(N=O)c1ccc(OC(=O)OCc2ccc([N+](=O)[O-])cc2Cl)cc1
[1]
  Activity: <2%
[2]
  Activity: >20%

## CN(N=O)c1ccc(OC(=O)OCc2ccccc2[N+](=O)[O-])cc1
[1]
  Activity: <2%
[2]
  Activity: >20%

## CN(N=O)c1ccc(OC(=O)OCc2ccc(Br)cc2[N+](=O)[O-])cc1
[1]
  Activity: <2%

## CN(N=O)c1ccc(OC(=O)OCc2cc(Cl)ccc2[N+](=O)[O-])cc1
[1]
  Activity: <2%

## Cc1ccc([N+](=O)[O-])c(COC(=O)Oc2ccc(N(C)N=O)cc2)c1
[1]
  Activity: <2%

## Cc1cc([N+](=O)[O-])ccc1COC(=O)Oc1ccc(N(C)N=O)cc1
[1]
  Activity: <2%
[2]
  Activity: 43.21%
[3]
  Activity: Active
[4]
  Activity: Active
[5]
  Activity: Active
[6]
  Activity: Active
[7]
  Activity: 0%
[8]
  Activity: Active
[9]
  Activity: 28%
[10]
  Activity: Non-Toxic
[11]
  Activity: Active
[12]
  Activity: 44 nmol
[13]
  Activity: Non-Toxic
[14]
  Activity: Active
[15]
  Activity: Active
[16]
  Activity: Active
[17]
  Activity: Active
[18]
  Activity: Active
[19]
  Activity: Dose-Dependent Effect
[20]
  Activity: Toxic
[21]
  Activity: 0.52 g
[22]
  Activity: 0.48 g
[23]
  Activity: Active
[24]
  Activity: Active
[25]
  Activity: Active
[26]
  Activity: Active
[27]
  Activity: Active
[28]
  Activity: Active
[29]
  Activity: Active
[30]
  Activity: Active
[31]
  Activity: Active
[32]
  Activity: Active
[33]
  Activity: Non-Toxic
[34]
  Ratio: 0.56
[35]
  Activity: Active
[36]
  Activity: Active
[37]
  Activity: Active

## Cc1ccc(COC(=O)Oc2ccc(N(C)N=O)cc2)c([N+](=O)[O-])c1
[1]
  Activity: <2%

## O=[N+]([O-])O[C@H]1CO[C@H]2[C@@H]1OC[C@H]2O[N+](=O)[O-] [ISOSORBIDE DINITRATE]
[1]
  Activity: 36.89%
[2]
  Activity: 27.41%
[38]
  Activity: Dose-Dependent Effect
[6]
  Activity: Active
[9]
  Activity: ~30%
[10]
  Activity: Non-Toxic
[11]
  Activity: Active
[12]
  Activity: 28.7 nmol
[13]
  Activity: Non-Toxic
[14]
  Activity: Active
[39]
  Activity: 0.51 g
[40]
  Activity: 54%
[41]
  Activity: Active
[42]
  Activity: inactive
[43]
  Ratio: 0.59

## CN(N=O)c1ccc(OC(=O)OCc2ccc([N+](=O)[O-])cc2)cc1
[44]
  Stability: 0.41%
[1]
  Activity: <2%
[2]
  Activity: 24.38%
[3]
  Activity: Active
[5]
  Activity: Active
[10]
  Activity: Non-Toxic
[11]
  Activity: Active
[45]
  Activity: Dose-Dependent Effect
[46]
  Activity: Active
[12]
  Activity: 37.5 nmol
[13]
  Activity: Non-Toxic
[14]
  Activity: Active
[15]
  Activity: Active
[47]
  Activity: inactive
[16]
  Activity: Active
[48]
  Activity: Active
[49]
  Activity: inactive
[50]
  Activity: Non-Toxic
[20]
  Activity: Toxic
[21]
  Activity: 0.57 g
[22]
  Activity: 0.48 g
[23]
  Activity: Active
[24]
  Activity: Active
[26]
  Activity: Active
[27]
  Activity: Active
[28]
  Activity: inactive
